Consider eleven molecules from patent US6337348B1, “Oxy-vanadium (iv) complexes having spermicidal activity” (Parker Hughes Institute, priority 1998, dated 2002).

Holding throughout (format): cell-based
In series [1] the test system is human sperm. Put plainly: Kinetics of sperm immobilization (timed CASA). To be noted: for T½ of sperm immobilization (time for 50% motility loss): 200 μM, 37° C. On the procedure: To test the effect of duration of incubation on sperm immobilization in the presence of oxovanadium (IV) complexes, a motile fraction of sperm 10^7/ml) was incubated at 37° C. in 1 ml of BWW−0.3% BSA in the presence of 200 μM each of the complexes or 0.2% DMSO alone. At timed intervals (every 5 and 10 minutes) aliquots (4 μl) were transferred to two 20 μm Microcell (Conception Technologies) chambers, and sperm motility was assessed by CASA.
For CASA, 4 μl each of sperm suspension was loaded into two 20 μm Microcell chambers placed onto a counting chamber at 37° C. At least 5-8 fields per chamber were scanned for analysis using a Hamilton Thorne Integrated Visual Optical System (IVOS) version 10 instrument (Hamilton Thorne Research Inc., Danvers, Mass.). Each field was recorded for 30 seconds. The Hamilton Thorne computer calibrations were set at 30 frames at a frame rate of 30 images/seconds. Other settings were as follows: minimum contrast 8; minimum size 6; low-size gate, 1.0; high-size gate,2.9; low-intensity gate, 0.6; high-intensity gate, 1.4; phase-contrast illumination; low path velocity at 10 μm/seconds and threshold straightness at 80%; magnification factor, 1.95. The performance of the analyzer was periodically checked using the playback function.

The subject of series [2] is human sperm. Put plainly: Mitochondrial transmembrane potential (JC-1 dye) flow cytometry. To be noted: 100 μM, 3 hours, 37° C. From the text:
The loss of ΔΨm, a early marker for apoptosis was quantitated by flow cytometry using the lipophilic cationic dye, 5,5′,6,6′-tetrachloro 1,1′,3,3′-tetraethylbenzimidazolecarbocyanine iodide (JC-1) as described in Cossarizza et al., 1993, BBRC 197:40-45. This dye accumulates in the mitochondrial matrix under the influence of the ΔΨm. The molecule is able to selectively enter into mitochondria, the monomeric form emitting at 527 nm after excitation at 490 nm. However, depending on the membrane potential, JC-1is able to form J-aggregates that are associated with a large shift in emission (590 nm). The color of the dye changes reversibly from green to greenish orange at ΔΨm becomes more polarized.
To quantitate changes in sperm ΔΨm following oxovanadium (IV) complex exposure, highly motile fraction of sperm (10^7/ml) in duplicate aliquots, were incubated at 37° C. for 3 hours in BWW−0.3% BSA medium in the presence and absence of 100 μM each of the vanadocene complexes, VO(phen), VO(phen)2, VO(Me2—phen), VO(Me2—phen)2, VO(Cl—phen), VO(Cl—phen)2, VO(bipy), VO(bipy)2, VO(Me2—bipy), VO(Me2—bipy)2, and VO(Br,OH—acph)2. Following incubation, 10 μg/ml JC-1 (Molecular Probes, Eugene, Oreg.) was added from a stock solution in DMSO (1 mg/ml) to the sperm suspension and incubated for an additional 10 minutes. At the end of the incubation period, sperm were washed in Tyrode's salt solution (Sigma), resuspended in 200 μl, and analyzed by flow cytometry for JC-1-specific fluorescence. The excitation was at 488 nm; the emissions for green and red/orange fluorescence were 530 nm and 575 nm respectively. JC-1 monomer and aggregated fluorescence were simultaneously measured in oxovanadium (IV) complex-exposed and control sperm. The percentages of sperm positive for green, orange, and greenish orange were determined using the cutoff signals for JC-1 labeled motile sperm.
A general note: In flow cytometry, cells or beads pass a laser one at a time.

Series [3] relates to human sperm. Put plainly: DNA fragmentation by in situ nick-end labeling (TUNEL) flow cytometry. The note with it: 100 μM, 24 hours, 37° C. On the procedure:
A flow cytometric two-color terminal deoxynucleotidyl transferase (TdT) assay was employed to detect apoptotic sperm nuclei by TdT-mediated dUTP nick-end labeling (TUNEL, as described in Gavrieli et al., 1992, J. Cell Biol., 119:493-501). The comparative effect of the oxovanadium (IV) complexes, VO(phen), VO(phen)2, VO(Me2—phen), VO(Me2—phen)2, VO(Cl—phen), VO(Cl—phen)2, VO(bipy), VO(bipy)2, VO(Me2—bipy), VO(Me2—bipy)2, and VO(Br,OH—acph)2, to induce apoptosis was tested by incubating 1 ml duplicate aliquots of motile sperm (10^7/ml) in BWW−0.3% BSA at 37° C. for 24 hours with and without 100 μM each of the test compounds. Sperm were washed in phosphate-buffered saline (PBS)−1% BSA, fixed in 4% paraformaldehyde in PBS for 15 minutes. Following two washings in PBS, they were permeabilized with 0.1% Triton X-100 in 0.1% sodium citrate for 2 minutes on ice, and washed twice with PBS. New 3′-hydroxyl (3′—OH) end labeling of fragmented sperm nuclear DNA was performed using TdT and detected by fluorescein (FITC)-conjugated uridine triphosphate (dUTP) according to the manufacturer's recommendations (Boehringer-Mannheim, Indianapolis, Ind.). Sperm aliquots incubated without TdT enzyme served as a negative control. […] Oxovanadium (IV)-induced apopotosis of sperm was shown by an increase in the number of cells staining with FITC- dUTP (M2 gates). The M1 and M2 gates were used to demarcate non-apoptotic and apoptotic PI-counterstained sperm populations, respectively. Two separate experiments were performed to assess dUTP incorporation following exposure of sperm to oxovanadium (IV) complexes.

For `Clc1cc2cccnc2c2ncccc12.Clc1cc2cccnc2c2ncccc12.O.O=S(=O)([O-])[O-].[O]=[V+2]` [VO(Cl-phen)2, (aqua)bis(5-chloro-1,10-phenanthroline)oxovanadium (IV) sulfate], in the series on human sperm [1], the “time of exposure to complete sperm motility loss” value is at most 10 min and the “T½ of sperm immobilization (time for 50% motility loss)” value is 7.3 min. Besides, the “JC-1 aggregate-positive sperm (%)” value in the series on human sperm [2] is listed as 35%. Also, the “TUNEL positive sperm (%)” value in the series with human sperm [3] came to 97%. Moreover, in the series on human sperm [3] (listed as VO(Cl—phen)2), the “TUNEL positive sperm (%)” value is given as “Greater than 97%”.

For the molecule `Clc1cc2cccnc2c2ncccc12.O.O.O=S(=O)([O-])[O-].[O]=[V+2]` [VO(Cl-phen), (diaqua)(5-chloro-1,10-phenanthroline)oxovanadium (IV) sulfate], the “JC-1 aggregate-positive sperm (%)” value with human sperm [2] is reported as 39%. Also, the “TUNEL positive sperm (%)” value in the series with human sperm [3] worked out at 95%.

On to `Cc1ccnc2c1ccc1c(C)ccnc12.Cc1ccnc2c1ccc1c(C)ccnc12.O.O=S(=O)([O-])[O-].[O-2].[V+4]` [VO(Me2-phen)2, (aqua)bis(4,7-dimethyl-1,10-phenanthroline)oxovanadium (IV) sulfate], for which, in the series on human sperm [2], the “JC-1 aggregate-positive sperm (%)” value is given as 63%. The “TUNEL positive sperm (%)” value with human sperm [3] stood at 94%.

As to `Cc1ccnc2c1ccc1c(C)ccnc12.O.O.O=S(=O)([O-])[O-].[O]=[V+2]` [VO(Me2-phen), (diaqua)(4,7-dimethyl-1,10-phenanthroline)oxovanadium (IV) sulfate], the “JC-1 aggregate-positive sperm (%)” value in the series with human sperm [2] amounted to 38%. In the series with human sperm [3], the “TUNEL positive sperm (%)” value was 97%.

On to `O.O=S(=O)([O-])[O-].[O-2].[V+4].c1ccc(-c2ccccn2)nc1.c1ccc(-c2ccccn2)nc1` [VO(bipy)2, (aqua)bis(2,2′-bipyridyl)oxovanadium (IV) sulfate], for which, in the series with human sperm [2], the “JC-1 aggregate-positive sperm (%)” value is on record as 94%. In the series on human sperm [3], the “TUNEL positive sperm (%)” value was 40%.

On to `O.O.O=S(=O)([O-])[O-].[O]=[V+2].c1ccc(-c2ccccn2)nc1` [VO(bipy), (diaqua)(2,2′-bipyridyl)oxovanadium (IV) sulfate], for which the “JC-1 aggregate-positive sperm (%)” value in the series on human sperm [2] stood at 95%. The “TUNEL positive sperm (%)” value in the series with human sperm [3] amounted to 43%.

For the molecule `O.O=S(=O)([O-])[O-].[O]=[V+2].c1cnc2c(c1)ccc1cccnc12.c1cnc2c(c1)ccc1cccnc12` [VO(phen)2, (aqua)bis(1,10-phenanthroline)oxovanadium (IV) sulfate], in the series on human sperm [2], the “JC-1 aggregate-positive sperm (%)” value is listed as 25%. Besides, the “TUNEL positive sperm (%)” value in the series on human sperm [3] was determined as 98%.

Regarding `O.O.O=S(=O)([O-])[O-].[O]=[V+2].c1cnc2c(c1)ccc1cccnc12` [VO(phen), (diaqua)(1,10-phenanthroline)oxovanadium (IV) sulfate], the “JC-1 aggregate-positive sperm (%)” value in the series on human sperm [2] worked out at 35%. Besides, the “TUNEL positive sperm (%)” value in the series with human sperm [3] was 98%.

For the molecule “(aqua)bis(4,4′-dimethyl-2,2′-bipyridyl)oxovanadium (IV) sulfate [VO(Me2-bipy)2]”, in the series with human sperm [2], the “JC-1 aggregate-positive sperm (%)” value is 62%. In addition, the “TUNEL positive sperm (%)” value with human sperm [3] was 63%.

With “(diaqua)(4,4′-dimethyl-2,2′-bipyridyl)oxovanadium (IV) sulfate [VO(Me2-bipy)]”, the “JC-1 aggregate-positive sperm (%)” value in the series on human sperm [2] is 88%. Moreover, the “TUNEL positive sperm (%)” value with human sperm [3] is listed as 45%.

Turning to “bis(5′-bromo-2′-hydroxyacetophenone)oxovanadium (IV) [VO(Br,OH-acph)2]”, in the series on human sperm [1], the “time of exposure to complete sperm motility loss” value is at most 2 min and the “T½ of sperm immobilization (time for 50% motility loss)” value worked out at 0.633 min. Also, the “JC-1 aggregate-positive sperm (%)” value in the series on human sperm [2] was found to be 83%. Further, the “TUNEL positive sperm (%)” value in the series with human sperm [3] came out at 98%.
